Assay: Human HepG2 cell viability assay in 384 well format
Type: toxicity, cell-based
Set-up: dose 125 nL, time 70.5 hour; cytotoxicity at 70.5 h: concentration not given beside the values
Conditions: HepG2 cells, read-out: Inhibition
For `COCCCN1C(=O)CC[C@H]2CN(Cc3ncc[nH]3)CC[C@H]21`, the cytotoxicity at 70.5 h was 8.43%.
For `O=C1CCCN1CCc1nc(-c2ccsc2)no1`, the cytotoxicity at 70.5 h was -14.2%.
`O=C(NC1(c2nnn(CC3CCCO3)n2)CCCC1)c1ccccc1` (stereo unspecified) showed a cytotoxicity at 70.5 h of -4.54%.
Work on `OCC1(CC2CC2)CCCN(Cc2ccc(C(F)(F)F)nc2)C1` (stereo unspecified) yielded a cytotoxicity at 70.5 h of -6.45%.
`CC(Cc1ccccc1Cl)NC(=O)Nc1cnn(CC(N)=O)c1` (stereo unspecified) gave a cytotoxicity at 70.5 h of -2.99%.
`CC(C)NC(=O)NCC(Cc1ccc(F)cc1)C(N)=O` (stereo unspecified) gave a cytotoxicity at 70.5 h of 21.5%.
Compound `Cc1nc(CN2CCC(C(=O)N(C)C3CCC(C)CC3)CC2)cs1` (stereo unspecified) has a cytotoxicity at 70.5 h of -3.95%.
With `CCn1ncc2c1NC(=O)C(C#N)C21CCCC1` (stereo unspecified) the cytotoxicity at 70.5 h was -11.6%.
`Cc1nc(CN2CCC3(CCN(C(=O)c4ccoc4C)CC3)C2)cs1` gave a cytotoxicity at 70.5 h of -6.97%.
`Cc1cc(C(=O)N2CCn3cnc(COCC4CC4)c3C2)no1` gave a cytotoxicity at 70.5 h of 0.0472%.
`OCc1ccc(Cl)c(NCc2cccnc2)c1` gave a cytotoxicity at 70.5 h of 19.4%.
`O=C(NCc1cc(C2CC2)n(C2CCCC2)n1)C1CC1` gave a cytotoxicity at 70.5 h of -9.71%.
Compound `Cc1ccc(C(=O)NC2CCCN(S(C)(=O)=O)C2)c(=O)[nH]1` (stereo unspecified) has a cytotoxicity at 70.5 h of -2.62%.
`C[C@H]1C[C@@H]2CCN(CC3CCOCC3)C[C@H]2O1` showed a cytotoxicity at 70.5 h of -7.97%.
Work on `COc1ccccc1C(C)CNC(=O)c1[nH]ncc1Br` (stereo unspecified) yielded a cytotoxicity at 70.5 h of 3.61%.
With `COCCN1C[C@@H]2CN(Cc3ccoc3)CCC[C@]2(C(=O)O)C1` the cytotoxicity at 70.5 h was -1.11%.
`N#Cc1cccc(CN2CC3(CCCCN3c3cccnc3)CC2=O)c1` (stereo unspecified) showed a cytotoxicity at 70.5 h of -1.1%.
`O=C(NCCCn1nc2ccccn2c1=O)NCC(C1CC1)C1CC1` gave a cytotoxicity at 70.5 h of -12.3%.
For `O=C(c1ccc(F)cc1F)N1C[C@H]2CC[C@@H]1CN(Cc1ccccc1)C2`, the cytotoxicity at 70.5 h was -2.62%.
With `Cc1nc(-c2ccc(S(=O)(=O)N3CCOCC3)cc2)co1` the cytotoxicity at 70.5 h was -6.53%.
`Cc1nc(C2CCCN(C(=O)c3cnn(C4CCCCC4)c3)C2)no1` (stereo unspecified) showed a cytotoxicity at 70.5 h of -1.22%.
Work on `Cc1nnc(CN(Cc2ccc(Cl)c(Cl)c2)C2CC2)o1` yielded a cytotoxicity at 70.5 h of -3.07%.
`CN(C)S(=O)(=O)N1CCN(CC2CCOc3ccccc3C2)CC1` (stereo unspecified) gave a cytotoxicity at 70.5 h of -4.7%.
In the case of `CCS(=O)(=O)N1CCC2(CN(C(=O)c3cscn3)C2)C1`, the cytotoxicity at 70.5 h is reported as -3.48%.
`CCn1cc(CN2CCN(Cc3cccc(OC)c3)C(=O)C2)cc1C#N` gave a cytotoxicity at 70.5 h of -1.17%.
With `O=S(=O)(C1CC1)N1CCCn2nnc(Cn3cccc3)c2C1` the cytotoxicity at 70.5 h was -8.69%.
With `COc1ccc2nc(C3CC3)cc(C(=O)NCCc3nnc[nH]3)c2c1` the cytotoxicity at 70.5 h was -3.73%.
In the case of `c1cnc(N2CCN(Cc3nnnn3C3CC3)CC2)nc1`, the cytotoxicity at 70.5 h is reported as -16.2%.
Work on `CC(C)(C)c1coc([C@@H]2COCCN2Cc2ccccc2)n1` yielded a cytotoxicity at 70.5 h of 0.308%.
For `Cc1nc2c(c(=O)[nH]1)CN(C(=O)CCC1CCCN(C)C1)C2` (stereo unspecified), the cytotoxicity at 70.5 h was -4.89%.
`COc1ncccc1NC(=O)NC(CCCO)c1ccccc1` (stereo unspecified) gave a cytotoxicity at 70.5 h of 11.2%.
`O=C(CC(F)(F)F)N1C[C@H]2CC[C@@H]1CN(Cc1ccccc1)C2` showed a cytotoxicity at 70.5 h of -3.61%.
`CCN1CCCC2(CCN(Cc3nnc(C4CC4)o3)C2)C1=O` (stereo unspecified) showed a cytotoxicity at 70.5 h of 0.731%.
In the case of `Cc1nc(-c2cccnc2)ncc1C(=O)N1CCC(C(C)N(C)C)CC1` (stereo unspecified), the cytotoxicity at 70.5 h is reported as -2.91%.
Compound `O=C(c1ccccn1)N1C[C@@H]2CC[C@H](C1)N(C(=O)CCC(F)(F)F)C2` has a cytotoxicity at 70.5 h of -3.18%.
In the case of `CC(=O)N1CCN(C(=O)NCc2ccccc2Cn2cncn2)CC1`, the cytotoxicity at 70.5 h is reported as -14.9%.
`CCCC(=O)N1CCC(C(=O)NCCNc2ncccn2)CC1` showed a cytotoxicity at 70.5 h of 0.692%.
For `FC(F)(F)c1nc(C2CCNCC2)no1`, the cytotoxicity at 70.5 h was -2.97%.
For `CN1CCN(C(=O)C2(NC(N)=O)CCCCC2)Cc2ccccc21`, the cytotoxicity at 70.5 h was -7.76%.
In the case of `CN(Cc1ccccc1)c1cnn(CC2CCCCO2)c(=O)c1` (stereo unspecified), the cytotoxicity at 70.5 h is reported as -4.54%.
With `Fc1ccc(OCC2CCCO2)c(NCc2noc(C3CC3)n2)c1` (stereo unspecified) the cytotoxicity at 70.5 h was -7.27%.
`O=C(c1ccc2cccc(F)c2n1)N1CCN(CCn2cccc2)CC1` showed a cytotoxicity at 70.5 h of 9.26%.
With `Cc1cc(C(=O)NCC2(C(N)=O)CCOCC2)nn1C(C)(C)C` the cytotoxicity at 70.5 h was -6.96%.
With `Cc1ccc(-c2nn(C)c(C(=O)O)c2Br)cc1` the cytotoxicity at 70.5 h was -20.5%.
For `O=C1CC2(CCN(CCO)CC2)CN1Cc1cc(F)cc(F)c1`, the cytotoxicity at 70.5 h was -7.72%.
`CC(=O)NCC(=O)N1CCC2(CC1)NC(=O)CC2c1cnn(C)c1` (stereo unspecified) gave a cytotoxicity at 70.5 h of -8.17%.
Compound `Cc1ccc(OC2(C(=O)O)CCN(C(=O)CCc3ccco3)CC2)cc1` has a cytotoxicity at 70.5 h of -3.25%.
In the case of `Cc1ccc(NC2CCN(C(=O)CCn3nc(C)cc3C)CC2)nn1`, the cytotoxicity at 70.5 h is reported as -14.3%.
`CSc1ncn(-c2nc(NC3CC3)nc(N(C)C)n2)n1` gave a cytotoxicity at 70.5 h of -25.9%.
With `COCC(C)N(C)C(=O)CCc1c(C)nc2c(C#N)cnn2c1C` (stereo unspecified) the cytotoxicity at 70.5 h was 3.69%.
Work on `FC(F)(F)Oc1cccc(CNC[C@H]2Cn3ccnc3CO2)c1` yielded a cytotoxicity at 70.5 h of 0.704%.
Work on `CC[C@@]1(O)CCN(C(=O)c2ccc(CN3CCCCCC3)cc2)C[C@H]1O` yielded a cytotoxicity at 70.5 h of -3.75%.
Compound `Cc1ccc(-c2cc(CN3CCc4cncnc4C3)on2)cc1` has a cytotoxicity at 70.5 h of -10.9%.
Work on `O=C(c1ccncc1)N1CCC2(CCCN(c3ncc(F)cn3)C2)C1` (stereo unspecified) yielded a cytotoxicity at 70.5 h of -2.34%.
In the case of `Cc1cc(C)c2[nH]c(=O)c(CN3CCC(O)(CN(C)C)C3)cc2c1` (stereo unspecified), the cytotoxicity at 70.5 h is reported as -15.6%.
For `CC(CCc1cccc(F)c1)NC(=O)NCc1ncnn1C` (stereo unspecified), the cytotoxicity at 70.5 h was -5.76%.
With `O=C([C@H]1COC[C@H]2CN(Cc3ccco3)C[C@H]21)N1CCCO1` the cytotoxicity at 70.5 h was 5.11%.
In the case of `CCOc1cc(C(=O)N2CCN(C)CC2)cc2occc12`, the cytotoxicity at 70.5 h is reported as 3.95%.
Work on `CCCc1nc(N2CCC(C)CC2)c2c(n1)c(C)nn2CC` yielded a cytotoxicity at 70.5 h of -10.6%.
`Cc1nc(C2CCCN2CCCS(=O)(=O)N(C)C)no1` (stereo unspecified) showed a cytotoxicity at 70.5 h of 22.2%.
For `CSc1ccc(NCC(=O)NCC(=O)N2CCCC2)cc1F`, the cytotoxicity at 70.5 h was -2.3%.
Work on `Fc1ccc(OCCCN2CCCC(Cn3cncn3)C2)cc1` (stereo unspecified) yielded a cytotoxicity at 70.5 h of -3.77%.
With `CC(NCC1(N(C)C)CCOCC1)c1ccc(Cl)cc1` (stereo unspecified) the cytotoxicity at 70.5 h was -3.88%.
`CCCc1n[nH]cc1C(=O)N1CCCC(c2nccn2CC2CC2)C1` (stereo unspecified) showed a cytotoxicity at 70.5 h of -6.16%.
In the case of `Cc1ccc(N2CCCc3sc(C(=O)NCc4ccc(C)o4)nc32)nn1`, the cytotoxicity at 70.5 h is reported as -6.21%.
`CCN(CC)CCN(CC(C)C)c1cc(C(F)(F)F)nc2ncnn12` showed a cytotoxicity at 70.5 h of 0.687%.
Compound `Cc1cc(CN(C)C(=O)CN2CC3(CCNCC3)OC2=O)n(C)n1` has a cytotoxicity at 70.5 h of -9.14%.
`CCn1cc(NC(=O)CN2CCC(Oc3ccccc3C)CC2)c(C)n1` showed a cytotoxicity at 70.5 h of -2.26%.
For `Cc1ccc(CNC(C)c2cc(F)ccc2N2CCN(C)CC2)o1` (stereo unspecified), the cytotoxicity at 70.5 h was 0.758%.
Work on `CNc1ncc(CN(C)C(=O)c2cccc(CC3CCNCC3)c2)cn1` yielded a cytotoxicity at 70.5 h of 35%.
Compound `CCc1nnc2n1CCN(Cc1nc(-c3ccoc3)no1)C2` has a cytotoxicity at 70.5 h of -7.66%.
`CCn1nc2c(cc1=O)CN(Cc1nc3ccccc3c(=O)[nH]1)CC2` gave a cytotoxicity at 70.5 h of 0.253%.
With `Cc1nccc(CNC(=O)N(CCCO)C2CCc3ccccc32)n1` (stereo unspecified) the cytotoxicity at 70.5 h was 30.5%.
With `c1ccc(N2CCOC3(CCCN(c4ncccn4)C3)C2)nc1` (stereo unspecified) the cytotoxicity at 70.5 h was -5.71%.
Compound `c1ccc2[nH]c(C3CCN(Cc4nnc(C5CC5)o4)CC3)cc2c1` has a cytotoxicity at 70.5 h of -12.6%.
In the case of `O=C(NC1CC1)C(c1ccccc1)N1CCN(Cc2ccc(Cl)s2)CC1` (stereo unspecified), the cytotoxicity at 70.5 h is reported as -3.83%.
`O=C(CC1=CSC2=NCCN12)N1CCCC(CCc2cccc(F)c2)C1` (stereo unspecified) showed a cytotoxicity at 70.5 h of -13.5%.
Compound `O=C1CC(c2ccc(C(=O)O)cc2)c2ncn(-c3ccccc3Cl)c2N1` (stereo unspecified) has a cytotoxicity at 70.5 h of -12.6%.
In the case of `CC1CN(C(=O)c2ccnc(OCCN(C)C)c2)c2ccccc21` (stereo unspecified), the cytotoxicity at 70.5 h is reported as -14.8%.
For `CCOCc1nc(-c2ccc(F)cc2Cl)n(C)n1`, the cytotoxicity at 70.5 h was -15.1%.
In the case of `NCC(CO)Cc1cccc(OC(F)(F)F)c1` (stereo unspecified), the cytotoxicity at 70.5 h is reported as 2.39%.

From ChEMBL document CHEMBL3507680, “University of Dundee, Gates Library screen for HepG2 cell viability”
